Tests used:
[1] = system: U-87 MG; test: Cytotoxicity against human U87 cells incubated for 48 hrs by MTT reagent based spectrophotometric analysis; type: functional, cell-based, U-87MG ATCC
[2] = system: NCI-H1299; test: Cytotoxicity against human NCI-H1299 cells incubated for 48 hrs by MTT reagent based spectrophotometric analysis; type: functional, cell-based; details: NCI-H1299, 48 h
[3] = Cytotoxicity against human OC3-IV2 cells incubated for 48 hrs by MTT reagent based spectrophotometric analysis; type: functional, cell-based; details: OC3-IV2, 48 h
[4] = Antitumor activity against human OC3-IV2 cells xenografted in CB17-Prkdcscid/CrlNarl mouse assessed as reduction in tumor size at 2 mg/kg,ip administrated once every 3 days for 2 weeks; type: functional; parameters: scale not given: the % may be the effect or the level left
[5] = system: PC-3; test: Cytotoxicity against human PC-3 cells incubated for 48 hrs by MTT reagent based spectrophotometric analysis; type: functional, cell-based; details: PC-3, 48 h
[6] = system: SCC-9; test: Cytotoxicity against human SCC-9 cells incubated for 48 hrs by MTT assay; type: functional, cell-based; details: SCC-9, 48 h
[7] = system: SCC-25; test: Induction of apoptosis in human SCC-25 cells at 7 uM incubated for 48 hrs by annexin V-FITC/PI staining based flow cytometry relative to control; type: functional
[8] = system: SCC-25; test: Cytotoxicity against human SCC-25 cells incubated for 48 hrs by MTT assay; type: functional, cell-based; details: SCC-25, 48 h
[9] = system: A253 cell line; test: Cytotoxicity against human A253 cell line incubated for 48 hrs by MTT assay; type: functional, cell-based; details: A253, 48 h
[10] = system: SK-OV-3; test: Cytotoxicity against human SK-OV-3 cells assessed as reduction in cell viability incubated for 48 hrs by MTT reagent based spectrophotometric analysis; type: functional; details: SK-OV-3, 48 h
[11] = system: HepG2; test: Antitumor activity against human HepG2 cells xenografted in BALB/c mouse assessed as reduction in tumor growth at 10 to 20 mg/kg,iv administrated once every 3 days for 3 weeks; type: functional; parameters: scale not given: the % may be the effect or the level left; details: dose 10-20 mg/kg
[12] = system: HCT-116; test: Cytotoxicity against human HCT-116 cells assessed as reduction in cell viability incubated for 48 hrs by MTT reagent based spectrophotometric analysis; type: functional; details: HCT-116, 48 h
[13] = system: HepG2; test: Cytotoxicity against human HepG2 cells assessed as reduction in cell viability incubated for 48 hrs by MTT reagent based spectrophotometric analysis; type: functional; details: HepG2, 48 h
[14] = system: MDA-MB-231; test: Antiproliferative activity against human MDA-MB-231 cells incubated for 24 hrs by CCK-8 assay; type: functional, cell-based; details: MDA-MB-231, 24 h
[15] = system: MCF7; test: Antiproliferative activity against human MCF7 cells incubated for 24 hrs by CCK-8 assay; type: functional, cell-based; details: MCF7, 24 h
[16] = system: MDA-MB-453; test: Antiproliferative activity against human MDA-MB-453 cells incubated for 24 hrs by CCK-8 assay; type: functional, cell-based; details: MDA-MB-453, 24 h
[17] = system: MDA-MB-231; test: Antitumor activity against human MDA-MB-231 cells xenografted in mouse assessed as reduction in tumor volume; type: functional
[18] = Antiproliferative activity against human SUM1315MO2 cells incubated for 24 hrs by CCK-8 assay; type: functional, cell-based; details: SUM1315MO2, 24 h
[19] = Antitumor activity against mouse Lewis lung carcinoma cell line implanted in C57BL/6J mouse assessed as reduction in tumor volume at 6 mg/kg administration; type: functional; parameters: scale not given: the % may be the effect or the level left
[20] = system: HepG2; test: Antiproliferative activity against human HepG2 cells incubated for 72 hrs by MTT assay; type: functional, cell-based; details: HepG2, 72 h
[21] = system: A549; test: Antiproliferative activity against human A549 cells incubated for 72 hrs by MTT assay; type: functional, cell-based; details: A549, 72 h
[22] = system: HCT-116; test: Antiproliferative activity against human HCT-116 cells incubated for 72 hrs by MTT assay; type: functional, cell-based; details: HCT-116, 72 h
[23] = system: HepG2; test: Cytotoxicity against human HepG2 cells incubated for 24 hrs by CCK-8 assay; type: functional, cell-based; details: HepG2, 24 h
[24] = system: SK-BR-3; test: Cytotoxicity against human SK-BR-3 cells incubated for 24 hrs by CCK-8 assay; type: functional, cell-based; details: SK-BR-3, 24 h
[25] = system: NCI-H1299; test: Cytotoxicity against human NCI-H1299 cells incubated for 24 hrs by CCK-8 assay; type: functional, cell-based; details: NCI-H1299, 24 h
[26] = system: A549; test: Cytotoxicity against human A549 cells incubated for 24 hrs by CCK-8 assay; type: functional, cell-based; details: A549, 24 h
[27] = system: SW480; test: Cytotoxicity against human SW480 cells incubated for 24 hrs by CCK-8 assay; type: functional, cell-based; details: SW480, 24 h
[28] = system: MDA-MB-231; test: Cytotoxicity against human MDA-MB-231 cells incubated for 24 hrs by CCK-8 assay; type: functional, cell-based; details: MDA-MB-231, 24 h
[29] = system: HCT-116; test: Cytotoxicity against human HCT-116 cells incubated for 24 hrs by CCK-8 assay; type: functional, cell-based; details: HCT-116, 24 h
[30] = system: NCI-H460; test: Cytotoxicity against human NCI-H460 cells incubated for 24 hrs by CCK-8 assay; type: functional, cell-based; details: NCI-H460, 24 h
[31] = system: SW-620; test: Cytotoxicity against human SW620 cells incubated for 24 hrs by CCK-8 assay; type: functional, cell-based; details: SW-620, 24 h
[32] = system: SW480; test: Antitumor activity against human SW480 cells xenografted in BALB/c mouse assessed as reduction in tumor volume at 20 mg/kg,po administrated with olaparib for 15 days; type: functional; parameters: scale not given: the % may be the effect or the level left; details: time 15 day
[33] = system: MDA-MB-468; test: Cytotoxicity against human MDA-MB-468 cells incubated for 24 hrs by CCK-8 assay; type: functional, cell-based; details: MDA-MB-468, 24 h
[34] = system: BT-549; test: Cytotoxicity against human BT-549 cells incubated for 24 hrs by CCK-8 assay; type: functional, cell-based; details: BT-549, 24 h
[35] = system: Huh-7; test: Cytotoxicity against human Huh-7 cells incubated for 24 hrs by CCK-8 assay; type: functional, cell-based; details: Huh-7, 24 h
[36] = system: MCF7; test: Cytotoxicity against human MCF7 cells incubated for 24 hrs by CCK-8 assay; type: functional, cell-based; details: MCF7, 24 h
[37] = system: HepG2; test: Antiproliferative activity against human HepG2 cells assessed as inhibition of cell growth incubated upto 48 hrs by MTT assay; type: functional, cell-based; details: HepG2, 48 h
[38] = system: U-87 MG; test: Antitumor activity against human U87 cells xenografted in BALB/c mouse assessed as increase in survival time of animal at 1 mg/kg,ip administrated once every 3 days for 40 days; type: functional, U-87MG ATCC; details: time 40 day
[39] = system: C6; test: Antitumor activity against rat C6 cells implanted in Wistar rat assessed as reduction in tumor volume at 100 mg/kg,IG administration once daily for 20 days; type: functional; parameters: scale not given: the % may be the effect or the level left; details: time 20 day
[40] = system: C6; test: Antiproliferative activity against rat C6 cells assessed as inhibition of cell growth incubated for 48 hrs by MTS/PMS assay; type: functional, cell-based; details: C6, 48 h
[41] = system: DBTRG-05MG; test: Antiproliferative activity against human DBTRG-05MG cells assessed as inhibition of cell growth incubated for 72 hrs in presence of sodium orthovanadate by cell counting kit method; type: functional, cell-based
[42] = system: DBTRG-05MG; test: Antiproliferative activity against human DBTRG-05MG cells assessed as inhibition of cell growth incubated for 72 hrs by cell counting kit method; type: functional, cell-based; details: Homo sapiens, DBTRG-05MG, 72 h
[43] = system: AGS; test: Cytotoxicity against human AGS cells incubated for 24 hrs by MTS assay; type: functional, cell-based
[44] = system: HL-60; test: Cytotoxicity against human HL-60 cells assessed as reduction in cell viability incubated for 48 to 72 hrs by MTT assay; type: functional, cell-based
[45] = system: MDA-MB-231; test: Antiproliferative activity against human MDA-MB-231 cells assessed as inhibition of cell growth incubated for 48 hrs by crystal violet staining based ELISA; type: functional; details: MDA-MB-231, 48 h
[46] = Cytotoxicity against human MCF7/LCC9 cells incubated for 7 days by MTT assay; type: functional, cell-based; details: MCF7, 168 h
[47] = system: EL4; test: Antitumor activity against mouse EL4 cells implanted in C57BL/6 mouse assessed as increase in survival of animal at 2 mg/kg,ip administrated for 5 consecutive days for 3 weeks; type: functional
[48] = system: MCF7; test: Cytotoxicity against human MCF7 cells incubated for 7 days by MTT assay; type: functional, cell-based; details: MCF7, 168 h
[49] = system: MCF7; test: Antiproliferative activity against human MCF7 cells assessed as inhibition of cell growth incubated for 48 hrs by crystal violet staining based ELISA; type: functional; details: MCF7, 48 h
[50] = Cytotoxicity against human MCF7/LCC2 cells incubated for 7 days by MTT assay; type: functional, cell-based; details: MCF7/LCC2, 168 h

## CC1=CC(=O)c2cccc(O)c2C1=O
[1]
  IC50: 2.4 µM
[2]
  IC50: 1.5 µM
[3]
  IC50: 5.4 µM
[4]
  Activity: 50%
[5]
  IC50: 6 µM

## Cc1cn([C@H]2C[C@H](N=[N+]=[N-])[C@@H](COC3=C(Cl)C(=O)c4ccccc4C3=O)O2)c(=O)[nH]c1=O
[6]
  IC50: 8 µM
[7]
  Activity: 30%
[8]
  IC50: 6.15 µM
[9]
  IC50: 5.99 µM

## CCCNC(=O)C(Cc1ccccc1)NC1=C/C(=N/O)c2ccccc2C1=O (stereo not given)
[10]
  IC50: 0.48 µM
[11]
  Activity: >60%
[12]
  IC50: 0.18 µM
[13]
  IC50: 0.16 µM

## COC(=O)C(NC(=O)CCCCC1CCSC(c2ccc(OC)cc2)S1)S[C@H](CC=C(C)C)C1=CC(=O)c2c(O)ccc(O)c2C1=O (stereo not given in full)
[14]
  IC50: 3.49 µM
[15]
  IC50: 6.45 µM
[16]
  IC50: 6.94 µM
[17]
  Activity: 200 mm3
[18]
  IC50: 10.5 µM

## CC(C)=CC[C@H](OC(=O)C1CCOCC1)C1=CC(=O)c2c(O)ccc(O)c2C1=O
[19]
  Activity: 63.45%
[20]
  IC50: 14.8 µM
[21]
  IC50: 1.67 µM
[22]
  IC50: > 20 µM

## CC(C)=CC[C@H](O)C1=CC(=O)c2c(O)ccc(O)c2C1=O [ALKANNIN]
[23]
  IC50: 4 µM
[24]
  IC50: 4 µM
[25]
  IC50: 4 µM
[26]
  IC50: 4 µM
[27]
  IC50: 4 µM
[28]
  IC50: 4 µM
[29]
  IC50: 4 µM
[30]
  IC50: 4 µM
[31]
  IC50: 4 µM
[32]
  Activity: >50%
[33]
  IC50: 4 µM
[34]
  IC50: 4 µM
[35]
  IC50: 4 µM
[36]
  IC50: 4 µM

## O=C1C=CC(=O)c2c(O)cccc21 [JUGLONE]
[37]
  IC50: 20.4 µM
[38]
  Activity: 23.6%

## CC(C)=CCC1=C(O)C(=O)c2ccccc2C1=O [LAPACHOL]
[39]
  Activity: 37%
[40]
  IC50: 3.7 µM

## CC1=CC(=O)c2ccccc2C1=O [MENADIONE]
[41]
  IC50: 13 µM
[42]
  IC50: 22 µM

## O=C1C=CC(=O)c2ccccc21 [NAPHTHOQUINONE]
[43]
  IC50: 2.5 µM

## CC1=CC(=O)c2c(O)cccc2C1=O [PLUMBAGIN]
[44]
  IC50: 1.5 µM
[45]
  IC50: 1.5 µM
[46]
  IC50: 1 µM
[47]
  Activity: 80%
[48]
  IC50: 1 µM
[49]
  IC50: 1.5 µM
[50]
  IC50: 1 µM
